Experiment in all cases: ADP-Glo Kinase Assay
Experiment [1] addresses T1, Tyrosine-protein kinase JAK3 [3-974] (UniProt P52333).
T1 construct: 3-974
T1 sequence (P52333 whole entry): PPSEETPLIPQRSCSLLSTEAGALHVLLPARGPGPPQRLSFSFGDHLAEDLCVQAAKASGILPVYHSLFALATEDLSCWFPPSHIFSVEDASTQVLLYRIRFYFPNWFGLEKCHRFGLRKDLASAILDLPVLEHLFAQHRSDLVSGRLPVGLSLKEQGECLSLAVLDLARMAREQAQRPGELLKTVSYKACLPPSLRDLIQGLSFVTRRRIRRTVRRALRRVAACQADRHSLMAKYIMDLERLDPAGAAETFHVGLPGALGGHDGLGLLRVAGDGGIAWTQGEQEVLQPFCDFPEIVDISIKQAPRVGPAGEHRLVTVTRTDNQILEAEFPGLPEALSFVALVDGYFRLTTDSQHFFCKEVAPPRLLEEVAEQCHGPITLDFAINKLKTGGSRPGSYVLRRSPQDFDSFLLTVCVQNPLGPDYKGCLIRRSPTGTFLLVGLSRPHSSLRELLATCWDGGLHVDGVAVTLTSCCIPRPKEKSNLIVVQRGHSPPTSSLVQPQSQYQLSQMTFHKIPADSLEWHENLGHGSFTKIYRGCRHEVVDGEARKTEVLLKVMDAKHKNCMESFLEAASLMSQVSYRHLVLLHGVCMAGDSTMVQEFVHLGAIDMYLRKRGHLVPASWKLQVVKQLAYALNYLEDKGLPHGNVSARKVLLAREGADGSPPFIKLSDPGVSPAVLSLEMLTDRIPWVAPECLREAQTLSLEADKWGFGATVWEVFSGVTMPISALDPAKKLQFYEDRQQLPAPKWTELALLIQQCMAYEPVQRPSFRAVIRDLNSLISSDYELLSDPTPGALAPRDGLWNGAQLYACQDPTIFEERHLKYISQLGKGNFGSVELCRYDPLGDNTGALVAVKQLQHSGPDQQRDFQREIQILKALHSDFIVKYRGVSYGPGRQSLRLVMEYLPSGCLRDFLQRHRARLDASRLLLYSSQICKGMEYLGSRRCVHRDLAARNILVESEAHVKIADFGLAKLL
As to the method: (§1) The kinase activity of recombinantly generated catalytic kinase (also known as JH1) domain of human JAK1, JAK2, JAK3 and TYK2 were evaluated in a plate-based assay using the ADP-Glo™ Kinase Assay platform. Specifically, 4 nM of recombinant JAK1 kinase domain is used to phosphorylate 50 μM of a JAK3-342 (sequence ALVDGYFRLTT) peptide in the presence of 35 μM ATP. Catalytic activities of recombinant JAK2, JAK3 and TYK2 kinase domain (0.2, 0.3 and 2 nM, respectively) are evaluated by the phosphorylation status of the JAK3-974 (50 μM; sequence LPLDKDYYVVR) peptide with the addition of ATP (15, 4 and 10 μM, respectively). The reactions proceed for 100 minutes and the catalytic activity is quantified by first depleting the unused ATP, converting the hydrolyzed ADP into ATP to generate luminescence in a luciferase reaction; which is the basis of the ADP-Glo platform. Compounds are tested at either 10 μM or 1 μM top concentration, 11 points of 3-fold dilution.

For experiment [2], the target named is Non-receptor tyrosine-protein kinase TYK2 (Homo sapiens, UniProt P29597). As to the method:
as §1

Experiment [3] has as its target Tyrosine-protein kinase JAK2 (Homo sapiens, UniProt O60674). As to the method:
as §1

The target in experiment [4] is Tyrosine-protein kinase JAK1 (Homo sapiens, UniProt P23458). As to the method: as §1
Sequence of Tyrosine-protein kinase JAK1 (P23458 whole entry): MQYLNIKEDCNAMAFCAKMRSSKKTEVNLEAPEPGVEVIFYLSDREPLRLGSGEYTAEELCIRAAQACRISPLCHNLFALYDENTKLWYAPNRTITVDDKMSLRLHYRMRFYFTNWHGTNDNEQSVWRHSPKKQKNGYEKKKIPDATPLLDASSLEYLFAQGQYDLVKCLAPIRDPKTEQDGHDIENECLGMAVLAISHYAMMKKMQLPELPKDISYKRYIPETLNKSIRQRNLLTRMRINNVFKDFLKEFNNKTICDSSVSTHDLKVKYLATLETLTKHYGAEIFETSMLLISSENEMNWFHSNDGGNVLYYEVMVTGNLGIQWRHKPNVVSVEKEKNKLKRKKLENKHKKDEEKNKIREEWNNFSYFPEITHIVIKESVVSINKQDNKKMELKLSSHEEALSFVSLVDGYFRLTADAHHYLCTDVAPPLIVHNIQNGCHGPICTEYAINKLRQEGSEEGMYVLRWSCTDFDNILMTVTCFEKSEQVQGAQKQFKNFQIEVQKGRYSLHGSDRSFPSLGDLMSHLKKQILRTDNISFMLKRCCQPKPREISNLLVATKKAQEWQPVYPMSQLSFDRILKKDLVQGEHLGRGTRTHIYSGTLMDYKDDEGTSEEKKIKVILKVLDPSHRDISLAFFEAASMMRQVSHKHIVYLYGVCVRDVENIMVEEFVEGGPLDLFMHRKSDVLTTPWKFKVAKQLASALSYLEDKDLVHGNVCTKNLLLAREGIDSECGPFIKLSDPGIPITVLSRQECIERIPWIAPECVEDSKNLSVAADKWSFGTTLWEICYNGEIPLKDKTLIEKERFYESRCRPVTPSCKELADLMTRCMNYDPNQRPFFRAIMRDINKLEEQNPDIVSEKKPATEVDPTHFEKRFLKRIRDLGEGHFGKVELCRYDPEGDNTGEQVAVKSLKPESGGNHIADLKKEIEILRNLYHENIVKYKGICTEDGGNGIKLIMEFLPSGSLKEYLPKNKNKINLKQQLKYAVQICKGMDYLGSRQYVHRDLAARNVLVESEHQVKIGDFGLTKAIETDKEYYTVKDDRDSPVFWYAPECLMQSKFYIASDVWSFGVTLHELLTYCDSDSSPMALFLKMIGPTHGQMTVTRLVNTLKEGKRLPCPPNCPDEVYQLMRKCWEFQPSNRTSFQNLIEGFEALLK

Structures are written as SMILES.

As usually defined, the IC50 is the concentration that inhibits the measured activity by half.

Sequence of Tyrosine-protein kinase JAK2 (O60674 whole entry): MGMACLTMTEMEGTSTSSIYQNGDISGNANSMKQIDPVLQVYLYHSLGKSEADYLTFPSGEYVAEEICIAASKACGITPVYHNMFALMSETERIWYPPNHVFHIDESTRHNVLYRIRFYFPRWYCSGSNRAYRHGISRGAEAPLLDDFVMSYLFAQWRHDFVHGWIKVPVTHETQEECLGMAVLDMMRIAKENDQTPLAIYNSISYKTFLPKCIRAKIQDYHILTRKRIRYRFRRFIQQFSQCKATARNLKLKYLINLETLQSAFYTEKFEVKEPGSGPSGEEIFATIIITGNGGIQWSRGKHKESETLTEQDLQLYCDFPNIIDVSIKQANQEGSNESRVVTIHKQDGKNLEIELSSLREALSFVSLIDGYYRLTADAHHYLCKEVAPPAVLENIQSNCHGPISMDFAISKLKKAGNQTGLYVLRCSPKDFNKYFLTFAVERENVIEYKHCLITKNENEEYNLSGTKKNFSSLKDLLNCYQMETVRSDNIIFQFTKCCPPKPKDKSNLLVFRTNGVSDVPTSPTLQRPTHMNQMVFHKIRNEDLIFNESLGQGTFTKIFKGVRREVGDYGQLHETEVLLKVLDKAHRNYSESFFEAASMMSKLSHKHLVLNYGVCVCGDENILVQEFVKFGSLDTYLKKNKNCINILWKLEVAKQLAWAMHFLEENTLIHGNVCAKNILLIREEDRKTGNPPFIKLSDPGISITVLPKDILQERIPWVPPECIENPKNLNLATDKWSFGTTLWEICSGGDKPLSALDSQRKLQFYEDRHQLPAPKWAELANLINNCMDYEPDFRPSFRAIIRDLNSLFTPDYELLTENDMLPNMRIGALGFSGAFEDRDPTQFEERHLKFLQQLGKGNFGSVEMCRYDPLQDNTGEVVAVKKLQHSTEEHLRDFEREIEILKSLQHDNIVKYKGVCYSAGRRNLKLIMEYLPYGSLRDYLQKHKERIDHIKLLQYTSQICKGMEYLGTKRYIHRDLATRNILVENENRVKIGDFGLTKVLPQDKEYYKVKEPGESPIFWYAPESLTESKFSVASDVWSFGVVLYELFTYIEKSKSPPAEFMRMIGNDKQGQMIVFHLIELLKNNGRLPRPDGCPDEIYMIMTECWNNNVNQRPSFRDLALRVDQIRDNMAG
Sequence of Non-receptor tyrosine-protein kinase TYK2 (P29597 whole entry): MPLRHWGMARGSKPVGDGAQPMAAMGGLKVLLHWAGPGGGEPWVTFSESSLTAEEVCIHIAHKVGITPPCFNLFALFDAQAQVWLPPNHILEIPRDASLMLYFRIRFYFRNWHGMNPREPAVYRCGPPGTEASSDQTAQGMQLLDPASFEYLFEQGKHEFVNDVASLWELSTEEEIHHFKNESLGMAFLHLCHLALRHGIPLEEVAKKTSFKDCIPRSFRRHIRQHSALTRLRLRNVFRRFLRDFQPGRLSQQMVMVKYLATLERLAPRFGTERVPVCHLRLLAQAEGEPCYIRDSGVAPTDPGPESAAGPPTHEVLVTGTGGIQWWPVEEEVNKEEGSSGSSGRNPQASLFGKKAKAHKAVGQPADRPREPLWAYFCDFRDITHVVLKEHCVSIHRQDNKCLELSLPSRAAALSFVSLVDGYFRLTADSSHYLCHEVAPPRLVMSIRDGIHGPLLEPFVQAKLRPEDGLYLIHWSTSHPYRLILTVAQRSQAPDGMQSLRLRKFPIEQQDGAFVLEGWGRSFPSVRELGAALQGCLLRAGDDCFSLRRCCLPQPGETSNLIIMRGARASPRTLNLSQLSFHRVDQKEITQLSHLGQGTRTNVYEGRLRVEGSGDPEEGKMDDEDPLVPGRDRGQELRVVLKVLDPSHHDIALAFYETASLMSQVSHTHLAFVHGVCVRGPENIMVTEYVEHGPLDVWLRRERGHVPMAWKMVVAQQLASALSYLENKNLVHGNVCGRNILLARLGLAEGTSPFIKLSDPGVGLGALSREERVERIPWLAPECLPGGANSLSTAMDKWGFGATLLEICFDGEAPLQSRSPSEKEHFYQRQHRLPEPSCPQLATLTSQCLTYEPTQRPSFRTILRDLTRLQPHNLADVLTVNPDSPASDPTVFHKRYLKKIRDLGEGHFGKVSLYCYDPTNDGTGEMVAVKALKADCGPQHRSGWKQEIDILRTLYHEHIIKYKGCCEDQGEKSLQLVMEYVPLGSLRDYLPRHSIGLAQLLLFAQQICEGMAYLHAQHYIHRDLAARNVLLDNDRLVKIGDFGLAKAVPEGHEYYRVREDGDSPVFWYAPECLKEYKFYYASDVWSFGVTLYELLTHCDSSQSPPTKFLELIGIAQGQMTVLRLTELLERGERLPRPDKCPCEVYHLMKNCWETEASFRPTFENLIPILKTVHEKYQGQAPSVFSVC

Regarding `COc1cc(-c2cc3c(N4CC5CCC(C4)N5C(=O)[C@@H]4C[C@H]4F)ccnc3[nH]2)c(F)cn1` [US20240360157, Example 246], the IC50 in experiment [1] stood at 0.992 µM; in experiment [2] it was 0.0051 µM; in experiment [3], 0.053 µM; in experiment [4] it was 0.076 µM.

As to `Cn1cc(-c2cc3c(N4CC5CCC(C4)N5C(=O)[C@@H]4CC4(F)F)ccnc3[nH]2)cn1` [US20240360157, Example 239], the IC50 was 0.114 µM in experiment [1], 0.0002 µM in experiment [2], 0.008 µM in experiment [3] and 0.018 µM in experiment [4].

For the origin of these results see BindingDB's records for patent US20240360157 (Biogen Ma, 2024).
